Reference: patent US9855225B2, “Cannabinoid receptor treatments” (TEMPLE UNIVERSITY OFFICE OF TECHNOLOGY TRANSFER, priority 2011, dated 2018)
“And” between values parts separate entries of the source, which are not always exact repeats. Equal entries are not always repeated. Where two headings read alike, the source gives them in different places.

Legend:
[1] = system: C57BL/6 responder splenocytes from WT mice; test: One-way mixed lymphocyte reaction (MLR), [3H]-thymidine incorporation, wild-type responder splenocytes; format: cell-based, mouse; conditions: for Inhibition of the MLR: WT splenocytes, agonist 16 and 32 μM, 3 h
Description: The MLR assay is a common method used to evaluate the cellular immune responses from two different individuals or animals and is considered to be an in vitro correlate of skin and organ transplant rejection. Lymphocytes from two different populations can be incubated together in which the T cells recognize the foreign cells from the other strain, become activated, proliferate and take up tritiated thymidine ([^3H]-thymidine). Results from this assay (Examples 1, 2 and 4) are expressed as a Suppression Index (SI), where untreated spleen cells are given a value of 1.00 (100%), and responses of cultures receiving treatment with cannabinoids are calculated as: […]
All SI data were transformed to normalized ranks to accommodate non-normality of the data. ANOVA was used to test for significant differences between groups.
The aim of the next series of experiments was to test the hypothesis that suppression of proliferation in the MLR is a CB2 receptor-mediated function.

mouse splenocytes = conditions: primary and secondary in vitro assays; earlier work of the inventors; cited from earlier work
IL-10 release in the MLR = test: IL-10 release in the MLR; format: cell-based, mouse; conditions: 32 μM, supernatants after 24 hours
Description: An MLR assay was performed in which experimental wells received 32 μM/ml of O-1966 and control wells received vehicle (FIGS. 7 and 9). Supernatants were collected after 24 hours. […] IL-10 is an immunosuppressive cytokine, so its rise induced by the CB2 receptor agonist provides a mechanism of action for the cannabinoid in suppressing the MLR. In a separate MLR some wells received 1.6 μg/ml of anti-IL-10 antibody. Wells that received no antibody and 32 μM 0-1966 had 90% suppression of proliferation compared to untreated cells. Cells that were treated with anti-IL-10 antibody and 32 μM O-1966 had 43% suppression of proliferation compared to wells that received anti-IL-10 antibody only.

Tregs = Tregs (Foxp3+ CD4+) in the MLR by flow cytometry; format: cell-based, mouse; conditions: 48 hours
Description: An MLR assay was performed in which experimental wells received 32 μM/ml of O-1966 and control wells received vehicle (FIG. 8). At 48 hours, cells were harvested and stained for expression of Foxp3 and CD4 (Cells that are double positive for these two markers are considered Tregs). Cells were analyzed for marker expression by flow cytometry. Wells that received no treatment had 2.1%+/−0.14 Tregs compared to wells that were treated with 32 μM O-1966 which had 4.3%+/−0.27 Tregs. These differences were statistically significant, as 20,000 cells were counted in each group. Tregs are a relatively newly recognized subset of T-cells that suppress T-cell immune responses. Thus, an increase their number induced by the CB2 receptor agonist provides a second mechanism by which the cannabinoid is altering T-cell responsiveness in the MLR assay.
An MLR was performed in which some wells received 1.6 μg/ml of anti-IL-10 antibody (FIG. 10). Cells were harvested at 48 hours and stained as described under #3 above for Tregs. Cells that received 32 μM O-1966 and no anti-IL-10 antibody had 4.3%+/−0.28 Tregs. Wells that received only anti-IL-10 antibody and no O-1966, had 1.7%+/−0.16 Tregs. Wells that received anti-IL-10 antibody in addition to 32 μM O-1966 had 2.9%+/−0.25 Tregs.

[2] = Spleen weight of treated skin graft recipient mice; format: in vivo, mouse; conditions: Day 14, 5 mg/kg every other day
From the text: Spleens were removed on Day 14 and weighed. Spleens from vehicle treated mice were 0.093+/−0.01 grams and spleens from O-1966 mice were 0.077+/−0.006 grams. Spleens of untreated mice average 0.072+/−0.009 grams (historical data). The average spleen weight index ([spleen weight/body weight]×100) was 0.46% in vehicle treated mice and 0.38% in O-1966 treated mice.

CD3+ T-cell population = test: mRNA expression (microarray/qPCR) in CD3+ T-cells from the MLR; format: cell-based, mouse; conditions: 32 μM/ml, 18 hours, vs vehicle
Description: This experiment was carried out to screen for molecules that are modulated by exposure of mouse spleen cells to the CB2 receptor agonist (FIG. 6). The experiment used a commercial microarray (Qiagen) that tests the levels of 89 different mRNAs. Spleen cells were placed in culture to carry out a standard Mixed Lymphocyte Reaction (MLR) assay. Experimental wells received 32 μM/ml of the selective CB2 receptor agonist, O-1966, and control wells received vehicle (0.4% ethanol). […] The decrease in CD40L and Cyclin D3 mRNA was significant because CD40L is an activation molecule for T-cells, and Cyclin D3 is a molecule involved in cell division. T-cell activation and division are decreased after exposure to the selective CB2 receptor agonist.

[3] = system: C57Bl/6 mice with skin grafts from C3HeB/FeJ mice; test: Skin graft rejection in mice; format: in vivo, mouse; conditions: 5 mg/kg intraperitoneal every other day for 14 days
Description: Groups of C57Bl/6 mice received skin grafts from C3HeB/FeJ mice that are histoincompatible (FIG. 11). Starting one hour before grafting mice were treated by intraperitoneal injection with either 5 mg/kg of the CB2 receptor agonist, O-1966, or vehicle. (Volumes were based on weight. but were usually approximately 0.2 ml.) every other day for 14 days, and monitored for graft rejection. Mice that received O-1966 treatment had viable grafts 2.7 days longer than vehicle treated mice, which was statistically significant.

[4] = system: splenocytes from skin graft recipient mice; test: Ex vivo MLR of splenocytes from treated skin graft recipient mice; parameters: species or system mouse; conditions: 5 mg/kg every other day 14 days; spleens day 14; 48 hr in culture
Description: Splenocytes from O-1966 treated skin graft recipient mice have decreased proliferation in an ex vivo MLR. (FIG. 12). Groups of mice received skin grafts and were treated with either 5 mg/kg O-1966 or vehicle every other day for 14 days. Spleens were removed on day 14 and placed in an MLR assay. The cells were restimulated in vitro with splenocytes from an incompatible mouse strain, but they received no additional treatment with a cannabinoid in vitro.

[5] = system: IL-2 release from splenocytes from CB2R-/- KO mice; test: IL-2 release in MLR supernatants by ELISA, CB2R-/- KO splenocytes; conditions: supernatants at 24 hours
splenic Tregs = test: Splenic Tregs of treated skin graft recipient mice by flow cytometry; format: in vivo, mouse
Description: O-1966 treated mice that received skin grafts have an increased percentage of splenic Tregs. (FIGS. 13 and 14): Spleen cells taken from the animals described in C1 above were harvested from animals, and a sample was immediately analyzed by flow cytometry. Another sample was placed in culture for 48 hours. […] Cells that were harvested after 48 hours in the MLR had 4.75% Tregs in the vehicle treated mice and 9.7% Tregs in the O-1966 treated mice.

[6] = system: CD3+ cells (T cells) and CD11b+ cells; format: cell-based, mouse; conditions: 1-32 μM, 3 hours, fractions added back
MLR culture cells = test: Cell viability in MLR cultures by flow cytometry (LIVE/DEAD stain); format: cell-based, mouse; conditions: parallel MLR cultures
Description: Lastly, cultures were run in parallel with each experimental MLR and tested by flow cytometry to assess viability using LIVE/DEAD® Fixable Dead Cell Stain Kit (Molecular Probes, Inc.; Eugene, Oreg.). Cells (1×10^6) from the culture were resuspended in 1 ml FCM Staining Buffer and incubated for 30 min at room temperature with 1 μl dead cell stain. Cells were washed twice and resuspended in FCM staining buffer and analyzed using an LSRII (BD Biosciences) flow cytometer, and the data were analyzed using FACSDiva™ software (BD Biosciences).

[7] = system: C57BL/6 responder splenocytes from WT mice; conditions: added to unfractionated murine spleen cells; previously shown by the inventors; cited from earlier work

Q: With `CCCn1c(C)c(C(=O)c2cccc3ccccc23)c2ccccc21` [JWH-015, reference compound] as the molecule, how does the “Inhibition of the MLR” value [1] read?
A: The value was “markedly inhibited the MLR”.

Q: With `CCCCC/C=C\C/C=C\C/C=C\C/C=C\CCCC(=O)NCCO` [anandamide, arachidonoylethanolamide] as the molecule, how does the “Immunosuppression in plaque-formation cell assays” value (mouse splenocytes) read?
A: Its value is “induce dose-related immunosuppression”.

Q: For SR144528 [reference compound], which “Block of suppression of the MLR by JWH-015 and O-1966” value ([1]; antagonist 32-320 μM added 2 h before agonist (16 and 32 μM)) is on record?
A: Its value is “blocked suppression”.

Q: For `CCCCCCC(C)(C)c1cc(OC)c(C2(O)CCCC(C)C2)c(OC)c1` (centres unmarked) [O-1966, 1-{4-(1,1-Dimeyhyl-heptyl)-2,6-dimethoxy-phenyl}-3-methyl-cyclohexanol], which “IL-10 release in the MLR” value (IL-10 release in the MLR) is on record?
A: Its value is 96.75 pg/mL.

Q: And the “Increase of IL-10 release in the MLR” value (IL-10 release in the MLR)?
A: The value was 2.46 fold.

Q: And the “Tregs (Foxp3+ CD4+)” value (Tregs; 32 μM O-1966 plus 1.6 μg/ml anti-IL-10 antibody)?
A: Its value is 2.9%+/−0.25.

Q: What about the “Tregs (Foxp3+ CD4+)” value (Tregs; 32 μM, no anti-IL-10 antibody) of the same molecule?
A: The value was 4.3%+/−0.27 and 4.3%+/−0.28.

Q: And the “Average spleen weight index ([spleen weight/body weight]×100)” value [2]?
A: Its value is 0.38%.

Q: What about the Spleen weight [2] of the same molecule?
A: The Spleen weight was 0.077+/−0.006 grams.

Q: And the “CD40L mRNA expression” value (CD3+ T-cell population)?
A: Its value is −4.60 fold.

Q: What about the “Cyclin D3 mRNA expression” value (CD3+ T-cell population) of the same molecule?
A: The value was −4.10 fold.

Q: What about the “IL-10 mRNA expression” value (CD3+ T-cell population) of the same molecule?
A: The value was 4.74 fold.

Q: And the “Sla2 mRNA expression” value (CD3+ T-cell population)?
A: The value was 4.75 fold.

Q: What about the “Socs5 mRNA expression” value (CD3+ T-cell population) of the same molecule?
A: Its value is 4.37 fold.

Q: What about the “Viable grafts longer than vehicle treated mice” value [3] of the same molecule?
A: Its value is 2.7 days.

Q: And the Suppression of proliferation ([1]; 32 μM plus 1.6 μg/ml anti-IL-10 antibody, compared to antibody only)?
A: Its Suppression of proliferation is 43%.

Q: And the Suppression of proliferation ([1]; 32 μM, no antibody, compared to untreated cells)?
A: The Suppression of proliferation was 90%.

Q: And the “Inhibition of the MLR” value [1]?
A: The value was “markedly inhibited the MLR”.

Q: What about the “Decreased proliferation in ex vivo MLR compared to vehicle treated mice” value [4] of the same molecule?
A: The value was 50%.

Q: What about the “Inhibition of IL-2 release” value [5] of the same molecule?
A: The value was “without effect”.

Q: And the “Tregs (CD4+, Foxp3+) of the CD4 cells” value (splenic Tregs; analyzed immediately after sacrifice, day 14, 5 mg/kg)?
A: The value was 32.2%.

Q: And the “Tregs after 48 hours in the MLR” value (splenic Tregs; ex vivo MLR 48 hours, 5 mg/kg in vivo)?
A: The value was 9.7%.

Q: What about the “SI values, CD3+ treated versus CD11b+ treated fractions” value [6] of the same molecule?
A: The value was “selectively reduced the SI values for cultures in which the CD3^+ cells were treated”.

Q: And the “Effect on cell death (live versus dead cells)” value (MLR culture cells)?
A: Its value is “did not affect cell death”.

Q: Which “Immunosuppression in plaque-formation cell assays” value (mouse splenocytes) does the source give for `CCCCCc1cc(O)c2c(c1)OC(C)(C)[C@@H]1CCC(C)=C[C@@H]21` [THC (Marinol), Δ^9-tetrahydrocannabinol] here?
A: Its value is “induce dose-related immunosuppression”.

Q: And the “Inhibition of the MLR” value [7]?
A: Its value is “inhibit the MLR”.
